Measurements reported in patent publication US4072574A, “System for in vitro assay for mutagenicity and/or carcinogenicity of chemicals or other exogenous agents” (priority 1976, dated 1978).

Key:
[1] = known status of the compound; cited from earlier work
[2] = test system: AMV DNA polymerase; assay: Fidelity of in vitro DNA synthesis (error frequency) with AMV DNA polymerase copying synthetic polynucleotide templates
Description: In this invention, the ability of carcinogens to decrease the fidelity of in vitro DNA synthesis will be used to screen for carcinogenic or mutagenic agents. The system uses synthetic polynucleotides of defined composition which may be copied in the test tubes with procaryotic, eucaryotic or viral DNA polymerases. The use of synthetic polynucleotides of defined composition allows the measurement of the simultaneous incorporation of the correct, complementary nucleotide and an incorrect, non-complementary nucleotide. The correct nucleotide is labeled with [α-^32 P] of low specific activity and the incorrect nucleotide is labeled with [^3 H] of high specific activity. Through this double labeled reaction it is possible to determine the simultaneous incorporation of both nucleotides and thus to determine an error frequency. The error frequency may be defined as the ratio of the incorrect/correct nucleotide incorporation. Agents which increase this error frequency may be scored as positive. […] Agents which score positive would be checked using different templates to underscore the positive results. In this system different polymerases will be used as well as different templates. One would expect that most carcinogens would change the fidelity of DNA synthesis with different polymerases as well as with different templates though this need not be the case.
Each assay will consist of a polymerase, a polynucleotide template that only contains one or two nucleotides, a complementary nucleotide and a non-complementary nucleotide as well as magnesium. Both of the nucleotides will be labeled by radioactive precursors and the ratio between the two is to be used for a measure of error frequency in the system. In instances where a template requires two complementary nucleotides, only one will be radioactively labeled.
Reactions (total volume 0.05 ml) which measured complementary nucleotide incorporation contained 50 mM Tris-HCL (pH 8.0), 20 mM KCl, 5 mM dithiothreitol, 5 mM MgCl2, 2μg BSA, […] [α-^32 P] -dTTP (60 dpm/pmole), 1μg poly (A).oligo (dT) (1:1.5 mass ratio), and 0.45 μg of AMV DNA polymerase. For simultaneous quantitation of complementary and non-complementary nucleotide incorporation each reaction was modified to contain 26μM [α-^32 P]dTTP (12 dpm/pmole) and 23μM [^3 H]-dCTP (50,000 dpm/pmole). […] Metals were added directly to the reaction mixture as aqueous solutions of chloride salts. All reactions were incubated for 60 min. at 37° C. Incorporation of radioactive nucleotides into an acid-insoluble and alkali-resistant product was determined by using the precipitation-solubilization procedure as described by Battula and Loeb. All experiments were performed in triplicate and the averages were determined.
In order to determine the effect of different metals on the accuracy of DNA replication, metal cations were added as chloride salts directly to the polymerase reaction. In these experiments, poly (A).oligo (dT) was the template-primer and the simultaneous incorporation of complementary nucleotide, [α-^32 P]-dTMP, and the non-complementery nucleotide, [^3 H]-dCMP, was determined.
The effect of metal salts on the fidelity of DNA synthesis was examined by testing each of the metal salts at a minimum of seven different concentrations.

[3] = 4 mM KC2 H3 O2, template in drawing 5
[4] = 20 mM KC2 H3 O2, template in drawing 5
[5] = 40 mM KC2 H3 O2, template in drawing 5
[6] = 80 mM KC2 H3 O2, template in drawing 5
[7] = Table 1, template poly (C).oligo (dG), classes 1-3 not defined
[8] = Table 1, template poly [d(A-T)], classes 1-3 not defined
[9] = 4 mM MgSO4, template in drawing 6
[10] = 6 mM MgSO4, template in drawing 6
[11] = 8 mM MgSO4, template in drawing 6
[12] = 10 mM MgSO4, template in drawing 6

SMILES: CC(=O)[O-].[K+] [KC2 H2 O2]
- Carcinogen or Mutagen [1]: -
- Complementary Deoxynucleotide Incorporation [2, 3]: 484 pmol
- Error Frequency [2, 3]: 1/733
- Non-complementary Deoxynucleotide Incorporation [2, 3]: 0.66 pmol
- Complementary Deoxynucleotide Incorporation [2, 4]: 423 pmol
- Error Frequency [2, 4]: 1/755
- Non-complementary Deoxynucleotide Incorporation [2, 4]: 0.56 pmol
- Complementary Deoxynucleotide Incorporation [2, 5]: 378 pmol
- Error Frequency [2, 5]: 1/741
- Non-complementary Deoxynucleotide Incorporation [2, 5]: 0.51 pmol
- Complementary Deoxynucleotide Incorporation [2, 6]: 379 pmol
- Error Frequency [2, 6]: 1/743
- Non-complementary Deoxynucleotide Incorporation [2, 6]: 0.51 pmol
- Class [2, 7]: 3
- Class ([2]; Table 2, classes not defined): 3
- Metal Concentration which yielded the largest observed change in error rate ([2]; template poly (C).oligo (dG)): 100 mM

SMILES: [Cl-].[K+] [KCl, potassium chloride]
- Carcinogen or Mutagen [1]: -
- effect on the fidelity of DNA synthesis (in words) ([2]; 1 mM to 300 mM, poly (A).oligo (dT)): did not alter the fidelity of DNA synthesis
- Class [2, 8]: 2
- Metal Concentration which yielded the largest observed change in error rate ([2]; template poly [d(A-T)]): 150 mM

SMILES: O=P([O-])(O)O.[K+] [KH2 PO4]
- Carcinogen or Mutagen [1]: -
- Class [2, 8]: 2
- Metal Concentration which yielded the largest observed change in error rate ([2]; template poly [d(A-T)]): 80 mM

SMILES: O=S(=O)([O-])[O-].[Mg+2] [MgSO4]
- Carcinogen or Mutagen [1]: -
- Complementary Deoxynucleotide Incorporation [2, 9]: 299 pmol
- Error Frequency [2, 9]: 1/598
- Non-complementary Deoxynucleotide Incorporation [2, 9]: 0.50 pmol
- Complementary Deoxynucleotide Incorporation [2, 10]: 398 pmol
- Error Frequency [2, 10]: 1/632
- Non-complementary Deoxynucleotide Incorporation [2, 10]: 0.63 pmol
- Complementary Deoxynucleotide Incorporation [2, 11]: 349 pmol
- Error Frequency [2, 11]: 1/635
- Non-complementary Deoxynucleotide Incorporation [2, 11]: 0.55 pmol
- Complementary Deoxynucleotide Incorporation [2, 12]: 360 pmol
- Error Frequency [2, 12]: 1/621
- Non-complementary Deoxynucleotide Incorporation [2, 12]: 0.58 pmol
- Class [2, 7]: 3
- Class ([2]; Table 2, classes not defined): 3
- Metal Concentration which yielded the largest observed change in error rate ([2]; template poly (C).oligo (dG)): 10 mM

SMILES: [Cl][Mn][Cl] [MnCl2]
- Class [2, 7]: 1
- Metal Concentration which yielded the largest observed change in error rate ([2]; template poly (C).oligo (dG)): 10 mM
- effect on the fidelity of DNA synthesis (in words) ([2]; various templates): alter the fidelity

SMILES: [Cl-].[Na+] [NaCl]
- Class [2, 8]: 2
- Metal Concentration which yielded the largest observed change in error rate ([2]; template poly [d(A-T)]): 120 mM

SMILES: [Na+].[OH-] [NaOH]
- Carcinogen or Mutagen [1]: -
- Class [2, 8]: 3
- Metal Concentration which yielded the largest observed change in error rate ([2]; template poly [d(A-T)]): 10 mM

SMILES: [Cl][Pb][Cl] [PbCl2]
- Carcinogen or Mutagen [1]: +
- Class [2, 7]: 1
- Metal Concentration which yielded the largest observed change in error rate ([2]; template poly (C).oligo (dG)): 4 mM

SMILES: [Cl-].[Rb+] [RbCl2]
- Carcinogen or Mutagen [1]: -
- Class [2, 8]: 2
- Metal Concentration which yielded the largest observed change in error rate ([2]; template poly [d(A-T)]): 20 mM

SMILES: Cn1c(=O)c2c(ncn2C)n(C)c1=O [caffeine]
- effect on the fidelity of DNA synthesis (in words) ([2]; 0.1-20 mM, poly (A).oligo (dT)): did not alter the fidelity of DNA synthesis

SMILES: CC1=C(/C=C/C(C)=C/C=C/C(C)=C/CO)C(C)(C)CCC1 [retinol]
- effect on the fidelity of DNA synthesis (in words) ([2]; 0.2-2μg, poly (A).oligo (dT)): did not alter the fidelity of DNA synthesis

SMILES: NCCCCNCCCN [spermidine]
- effect on the fidelity of DNA synthesis (in words) ([2]; 0.1 to 5 mM, poly (A).oligo (dT)): did not alter the fidelity of DNA synthesis
